# Experiment: Safety assessment: adverse events
# Type: in vivo, Japanese patients
# From the text: Safety assessments consisted of monitoring and recording of all AEs, including laboratory abnormalities and vital signs. DLTs were defined as an AE or a laboratory abnormality assessed as related to the study drug and occurring within the first 28 days of treatment (Cycle 1), as defined in Supplemental Table S1.
# [1] = bid 400 mg N = 8, regardless of study drug relationship
# [2] = qd 400 mg (n = 3), regardless of study drug relationship
# [3] = qd 800 mg (n = 3), regardless of study drug relationship
# [4] = qd 1000 mg (n = 8), regardless of study drug relationship
structure (smiles),measurement,setting,value
Cn1c(=O)n(-c2ccc(C(C)(C)C#N)cc2)c2c3cc(-c4cnc5ccccc5c4)ccc3ncc21 [BEZ235],study drug-related SAE,1000 mg qd,grade 2 colitis
same,patients requiring dose reduction in Cycle 2,1200 mg qd,two out of six
same,patients requiring dose interruption due to AEs,1400 mg qd,six
same,patients requiring dose reduction in early cycles,1400 mg qd,three
same,study drug-related SAE,1400 mg qd,grade 2 Pneumocystis jiroveci pneumonia
same,"AEs Total, All grades",[1],8 (100.0) n (%)
same,"AEs Total, Grade ¾",[1],7 (87.5) n (%)
same,"Alanine aminotransferase increased, All grades",[1],4 (50.0) n (%)
same,"Alanine aminotransferase increased, Grade ¾",[1],0 n (%)
same,"Anxiety, All grades",[1],2 (25.0) n (%)
same,"Anxiety, Grade ¾",[1],0 n (%)
same,"Aspartate aminotransferase increased, All grades",[1],4 (50.0) n (%)
same,"Aspartate aminotransferase increased, Grade ¾",[1],1 (12.5) n (%)
same,"Blood alkaline phosphatase increased, All grades",[1],2 (25.0) n (%)
same,"Blood alkaline phosphatase increased, Grade ¾",[1],0 n (%)
same,"Blood creatinine increased, All grades",[1],3 (37.5) n (%)
same,"Blood creatinine increased, Grade ¾",[1],0 n (%)
same,"Cancer pain, All grades",[1],3 (37.5) n (%)
same,"Cancer pain, Grade ¾",[1],2 (25.0) n (%)
same,"Cheilitis, All grades",[1],3 (37.5) n (%)
same,"Cheilitis, Grade ¾",[1],0 n (%)
same,"Decreased appetite, All grades",[1],7 (87.5) n (%)
same,"Decreased appetite, Grade ¾",[1],1 (12.5) n (%)
same,"Diarrhea, All grades",[1],7 (87.5) n (%)
same,"Diarrhea, Grade ¾",[1],1 (12.5) n (%)
same,"Dry skin, All grades",[1],4 (50.0) n (%)
same,"Dry skin, Grade ¾",[1],0 n (%)
same,"Dysphagia, All grades",[1],3 (37.5) n (%)
same,"Dysphagia, Grade ¾",[1],0 n (%)
same,"Fatigue, All grades",[1],5 (62.5) n (%)
same,"Fatigue, Grade ¾",[1],1 (12.5) n (%)
same,"Gamma-glutamyltransferase increased, All grades",[1],2 (25.0) n (%)
same,"Gamma-glutamyltransferase increased, Grade ¾",[1],0 n (%)
same,"Haemoglobin decreased, All grades",[1],4 (50.0) n (%)
same,"Haemoglobin decreased, Grade ¾",[1],1 (12.5) n (%)
same,"Hyperkalaemia, All grades",[1],2 (25.0) n (%)
same,"Hyperkalaemia, Grade ¾",[1],0 n (%)
same,"Hypoalbuminaemia, All grades",[1],4 (50.0) n (%)
same,"Hypoalbuminaemia, Grade ¾",[1],1 (12.5) n (%)
same,"Hyponatraemia, All grades",[1],2 (25.0) n (%)
same,"Hyponatraemia, Grade ¾",[1],1 (12.5) n (%)
same,"Insomnia, All grades",[1],4 (50.0) n (%)
same,"Insomnia, Grade ¾",[1],0 n (%)
same,"Lymphopenia, All grades",[1],4 (50.0) n (%)
same,"Lymphopenia, Grade ¾",[1],2 (25.0) n (%)
same,"Malaise, All grades",[1],2 (25.0) n (%)
same,"Malaise, Grade ¾",[1],1 (12.5) n (%)
same,"Nausea, All grades",[1],7 (87.5) n (%)
same,"Nausea, Grade ¾",[1],0 n (%)
same,"Pyrexia, All grades",[1],2 (25.0) n (%)
same,"Pyrexia, Grade ¾",[1],0 n (%)
same,"Rash, All grades",[1],4 (50.0) n (%)
same,"Rash, Grade ¾",[1],0 n (%)
same,"Stomatitis, All grades",[1],5 (62.5) n (%)
same,"Stomatitis, Grade ¾",[1],0 n (%)
same,"Thrombocytopenia, All grades",[1],5 (62.5) n (%)
same,"Thrombocytopenia, Grade ¾",[1],2 (25.0) n (%)
same,"Urinary tract infection, All grades",[1],2 (25.0) n (%)
same,"Urinary tract infection, Grade ¾",[1],0 n (%)
same,"Vomiting, All grades",[1],4 (50.0) n (%)
same,"Vomiting, Grade ¾",[1],0 n (%)
same,study drug-related SAE,"bid dosing group, one patient",grade 4 diarrhea
same,patients with Grade 3 or 4 AEs,"bid dosing, seven patients",87.5%
same,study drug discontinuation due to AEs,"bid group, one patient",12.5%
same,grade 3 or 4 lymphopenia suspected to be study drug-related,"bid group, two patients",25.0%
same,grade 3 or 4 thrombocytopenia suspected to be study drug-related,"bid group, two patients",25.0%
same,deaths during the study period,"including a 30-day follow-up, qd and bid",No patient died
same,"AEs Total, All grades",[2],3 (100.0) n (%)
same,"AEs Total, Grade ¾",[2],2 (66.7) n (%)
same,"Alanine aminotransferase increased, All grades",[2],2 (66.7) n (%)
same,"Alanine aminotransferase increased, Grade ¾",[2],0 n (%)
same,"Blood alkaline phosphatase increased, All grades",[2],1 (33.3) n (%)
same,"Blood alkaline phosphatase increased, Grade ¾",[2],0 n (%)
same,"Cancer pain, All grades",[2],2 (66.7) n (%)
same,"Cancer pain, Grade ¾",[2],1 (33.3) n (%)
same,"Decreased appetite, All grades",[2],2 (66.7) n (%)
same,"Decreased appetite, Grade ¾",[2],0 n (%)
same,"Diarrhea, All grades",[2],2 (66.7) n (%)
same,"Diarrhea, Grade ¾",[2],0 n (%)
same,"Dysgeusia, All grades",[2],0 n (%)
same,"Dysgeusia, Grade ¾",[2],0 n (%)
same,"Fatigue, All grades",[2],1 (33.3) n (%)
same,"Fatigue, Grade ¾",[2],0 n (%)
same,"Leukopenia, All grades",[2],0 n (%)
same,"Leukopenia, Grade ¾",[2],0 n (%)
same,"Lymphopenia, All grades",[2],2 (66.7) n (%)
same,"Lymphopenia, Grade ¾",[2],2 (66.7) n (%)
same,"Nausea, All grades",[2],3 (100.0) n (%)
same,"Nausea, Grade ¾",[2],0 n (%)
same,"Neutropenia, All grades",[2],0 n (%)
same,"Neutropenia, Grade ¾",[2],0 n (%)
same,"Pyrexia, All grades",[2],1 (33.3) n (%)
same,"Pyrexia, Grade ¾",[2],0 n (%)
same,"Rash, All grades",[2],1 (33.3) n (%)
same,"Rash, Grade ¾",[2],0 n (%)
same,"Stomatitis, All grades",[2],2 (66.7) n (%)
same,"Stomatitis, Grade ¾",[2],0 n (%)
same,"Thrombocytopenia, All grades",[2],0 n (%)
same,"Thrombocytopenia, Grade ¾",[2],0 n (%)
same,"Vomiting, All grades",[2],2 (66.7) n (%)
same,"Vomiting, Grade ¾",[2],0 n (%)
same,"AEs Total, All grades",[3],3 (100.0) n (%)
same,"AEs Total, Grade ¾",[3],1 (33.3) n (%)
same,"Alanine aminotransferase increased, All grades",[3],0 n (%)
same,"Alanine aminotransferase increased, Grade ¾",[3],0 n (%)
same,"Blood alkaline phosphatase increased, All grades",[3],0 n (%)
same,"Blood alkaline phosphatase increased, Grade ¾",[3],0 n (%)
same,"Cancer pain, All grades",[3],2 (66.7) n (%)
same,"Cancer pain, Grade ¾",[3],0 n (%)
same,"Decreased appetite, All grades",[3],3 (100.0) n (%)
same,"Decreased appetite, Grade ¾",[3],0 n (%)
same,"Diarrhea, All grades",[3],3 (100.0) n (%)
same,"Diarrhea, Grade ¾",[3],0 n (%)
same,"Dysgeusia, All grades",[3],1 (33.3) n (%)
same,"Dysgeusia, Grade ¾",[3],0 n (%)
same,"Fatigue, All grades",[3],2 (66.7) n (%)
same,"Fatigue, Grade ¾",[3],0 n (%)
same,"Leukopenia, All grades",[3],1 (33.3) n (%)
same,"Leukopenia, Grade ¾",[3],0 n (%)
same,"Lymphopenia, All grades",[3],1 (33.3) n (%)
same,"Lymphopenia, Grade ¾",[3],1 (33.3) n (%)
same,"Nausea, All grades",[3],1 (33.3) n (%)
same,"Nausea, Grade ¾",[3],0 n (%)
same,"Neutropenia, All grades",[3],1 (33.3) n (%)
same,"Neutropenia, Grade ¾",[3],0 n (%)
same,"Pyrexia, All grades",[3],1 (33.3) n (%)
same,"Pyrexia, Grade ¾",[3],0 n (%)
same,"Rash, All grades",[3],0 n (%)
same,"Rash, Grade ¾",[3],0 n (%)
same,"Stomatitis, All grades",[3],2 (66.7) n (%)
same,"Stomatitis, Grade ¾",[3],0 n (%)
same,"Thrombocytopenia, All grades",[3],1 (33.3) n (%)
same,"Thrombocytopenia, Grade ¾",[3],1 (33.3) n (%)
same,"Vomiting, All grades",[3],1 (33.3) n (%)
same,"Vomiting, Grade ¾",[3],0 n (%)
same,"AEs Total, All grades",[4],8 (100.0) n (%)
same,"AEs Total, Grade ¾",[4],4 (50.0) n (%)
same,"Alanine aminotransferase increased, All grades",[4],0 n (%)
same,"Alanine aminotransferase increased, Grade ¾",[4],0 n (%)
